PMC11373198, “In vitro efficacy of next-generation dihydrotriazines and biguanides against babesiosis and malaria parasites” (Antimicrobial Agents and Chemotherapy, 2024)
Read-outs that look alike come from different tables or passages of the source.

What was measured:
[1] = tested on: human cell lines (HepG2, HCT-116, HEK-293, and HeLa); assay: Cytotoxicity on human cell lines, average / overall, and therapeutic index; type: cell-based; conditions: HepG2, HCT-116, HEK-293, HeLa, MTT 72 h
Protocol: HeLa, HepG2, HEK293, and HCT116 cell lines were obtained from the American Type Culture Collection (ATCC) and maintained in Dulbecco’s modified Eagle’s medium (DMEM) (Invitrogen 11995–065) containing 25 mM glucose, 1 mM sodium pyruvate, and supplemented with 5 mM HEPES, 10% FBS, and penicillin-streptomycin (50 U/mL penicillin, 50 µg/mL streptomycin). Cells were seeded in a 96-well tissue culture plate (20,000 cells per well) and allowed to adhere for 24 hours, after which they were treated with a 12-step 2-fold serial dilution of each drug starting at 1 mM as the highest final concentration. Cells maintained in the medium supplemented with either 0.1% or 10% DMSO were used as negative and positive vehicle controls, respectively. The plates were incubated at 37 °C for 72 h, after which each well was incubated with 0.5 mg/mL of MTT reagent (MP Chemicals #02102227) for 4 h in the dark at 37 °C. The formazan crystals formed by living cells were solubilized with the addition of 100 µL of DMSO to each well. We measured the OD590nm using a SpectraMax plate reader. From the obtained OD values, percent cell viability was estimated by normalizing to the mean of 10% DMSO wells (set as 100% toxicity) and mean of the vehicle control wells (set as 0% toxicity). Dose-response curves were plotted using GraphPad Prism version 9.1.2.

B. divergens (Rouen87) = assay: In vitro growth inhibition of B. divergens in human erythrocytes (SYBR Green-I); type: cell-based; conditions: Babesia divergens, Erythrocyte, DFS20 medium
Protocol: (§1) The effect of DHT derivatives on the intraerythrocytic development of P. falciparum, B. duncani, B. divergens and B. MO1 and the determination of IC50 values were conducted as previously reported ([54], [67]). Briefly, the parasites cultured in vitro (0.1% parasitemia with 5% hematocrit in complete DFS20 medium or RPMI-1640) were treated with various concentrations of the compounds in a 96-well plate and incubated at 37 °C for either 60 h in the case of B. duncani or 72 h in the case of P. falciparum. Parasitemia was then determined using the SYBR Green-I method by adding an equal volume of parasite culture to the lysis buffer (0.008% saponin, 0.08% Triton-X-100, 20 mM Tris-HCl (pH = 7.5), and 5 mM EDTA) containing SYBR Green-I (0.01%). The mixture was then incubated at 37°C for 1 h in the dark. The fluorescence was measured at 480 nm (excitation) and 540 nm (emission) using a BioTek Synergy™ Mx Microplate Reader. Background fluorescence from uninfected erythrocytes maintained in a complete DFS20 and RPMI-1640 medium was subtracted from each sample, and the 50% inhibitory concentration (IC50) of the drug was determined by plotting drug concentrations versus parasite growth using GraphPad Prism 9.2.1. Data are shown as mean ± SD from two biological replicates with three technical replicates.

P. falciparum 3D7 = assay: In vitro growth inhibition of P. falciparum 3D7 (SYBR Green-I); type: cell-based, Plasmodium falciparum
B. MO1 = assay: In vitro growth inhibition of B. MO1 in human erythrocytes (SYBR Green-I); type: cell-based, Babesia MO1; conditions: DFS20 medium
Protocol: as §1

B. duncani (WA-1) = assay: In vitro growth inhibition of B. duncani in human erythrocytes (SYBR Green-I); type: cell-based, Babesia duncani; conditions: for IC50: 60 h; for activity against B. duncani, structure-activity relationship: analogs compared within screening, 2-chloro, 4-trifluoromethoxy series or terminal aryl heterocycles
P. falciparum HB3 = assay: In vitro growth inhibition of P. falciparum HB3 (SYBR Green-I); type: cell-based, Plasmodium falciparum; conditions: DFS20 medium, read-out: PfHB3 (IC50 in nM)
P. falciparum Dd2 = assay: In vitro growth inhibition of P. falciparum Dd2 (SYBR Green-I); type: cell-based, Plasmodium falciparum; conditions: DFS20 medium, read-out: PfDd2 (IC50 in nM)
B. microti = tested on: B. microti; parameters: method as in PMID 7447406; conditions: Mongolian jirds; cited from earlier work
Babesia bovis = tested on: Babesia bovis; parameters: method as in PMID 18794380, PMID 21904052; conditions: cited from earlier work
Babesia gibsoni = tested on: Babesia gibsoni; parameters: method as in PMID 18794380, PMID 21904052; conditions: cited from earlier work
[2] = Plasmodium falciparum, 3D7, 72 h, DFS20 medium, 72 h, read-out: Pf3D7 (IC50 in nM)
[3] = Plasmodium falciparum, 3D7, DFS20, Table S3, read-out: P.falciparum 3D7 (IC50 in nM), DFS20
[4] = Plasmodium falciparum, 3D7, RPMI-1640 + 10% human serum, read-out: P.falciparum 3D7 (IC50 in nM), RPMI-1640 + 10%human serum
[5] = Babesia duncani, Erythrocyte, read-out: B. duncani WA1 (IC50 in nM), DFS20 medium, 60 h
[6] = Plasmodium falciparum, HB3, 72 h
[7] = Plasmodium falciparum, DD2, 72 h

| Structure (SMILES) | IC50 [1] [nM] | IC50 (B. divergens (Rouen87)) [nM] | IC50 (P. falciparum 3D7; [2]) [nM] | IC50 (P. falciparum 3D7; [3]) [nM] | IC50 (P. falciparum 3D7; [4]) [nM] | IC50 (B. MO1; Babesia, Erythrocyte) [nM] | IC50 (B. duncani (WA-1); [5]) [nM] | activity against B. duncani, structure-activity relationship (B. duncani (WA-1)) | IC50 (P. falciparum HB3; [6]) [nM] | IC50 (P. falciparum Dd2; [7]) [nM] | activity against B. microti infection (B. microti) | inhibition of in vitro parasite growth of Babesia bovis (Babesia bovis) | inhibition of in vitro parasite growth of Babesia gibsoni (Babesia gibsoni) | IC50 (P. falciparum 3D7; DFS20 medium, 72 h, read-out: Pf3D7 (IC50 in nM)) [nM] | IC50 (B. MO1) [nM] | IC50 (B. duncani (WA-1); read-out: B. duncani WA1 (IC50 in nM), DFS20 medium) [nM] | IC50 (P. falciparum HB3; 72 h) [nM] | IC50 (P. falciparum Dd2; 72 h) [nM] |
| --- | --- | --- | --- | --- | --- | --- | --- | --- | --- | --- | --- | --- | --- | --- | --- | --- | --- | --- |
| CC1(C)N=C(N)N=C(N)N1OCCCOc1ccc(-n2cncn2)cc1 [JPC-1059] | 132000 | 3.7 ± 0.7 | 2 ± 0.64 | 1.3 ± 0.09 | 1.4 ± 0.021 | 5.4 ± 1.4 | 10.3 ± 0.7 | beneficial | 0.3 ± 0.17 | 0.3 ± 0.02 |  |  |  |  |  |  |  |  |
| Cc1cc(NS(=O)(=O)c2ccc(N)cc2)no1 [sulfamethoxazole] |  |  |  |  |  |  |  |  |  |  | little to no activity |  |  |  |  |  |  |  |
| Nc1ccc(S(=O)(=O)c2ccc(N)cc2)cc1 [dapsone] |  |  |  |  |  |  |  |  |  |  | little to no activity |  |  |  |  |  |  |  |
| NC1=NC(c2ccc(F)cc2)N(OCCCOc2ccc(OC(F)(F)F)cc2Cl)C(N)=N1 (stereo not shown) [JPC-3680] | 10000 | 40 ± 0.7 | 1.7 ± 0.7 | 1.2 ± 0.03 | 1.8 ± 0.3 | 6 ± 0.5 | 3.2 ± 0.21 | increased activity | 2.1 ± 0.33 | 37 ± 1.25 |  |  |  |  |  |  |  |  |
| CN(Cc1cnc2nc(N)nc(N)c2n1)c1ccc(C(=O)N[C@@H](CCC(=O)O)C(=O)O)cc1 [methotrexate] |  |  |  |  |  |  |  |  |  |  |  | moderate to effective inhibition | moderate to effective inhibition |  |  |  |  |  |
| CC1(C)N=C(N)N=C(N)N1OCCCOc1ccc(Cl)cc1Cl [JPC-210] | 69000 | 3.1 ± 1.42 | 3.1 ± 1.24 | 1.6 ± 0.025 | 1.2 ± 0.1 | 0.8 ± 0.24 | 3.6 ± 0.42 |  | 0.4 ± 0.07 | 0.05 ± 0.01 |  |  |  |  |  |  |  |  |
| CC1(C)N=C(N)N=C(N)N1OCCCOc1ccccc1OC(F)(F)F [JPC-2060] | 15000 | ~4 | ~1.9 | 1.9 ± 0.29 | 0.8 ± 0.17 | ~0.5 | ~0.8 |  | ~0.6 | ~0.4 |  |  |  | 2.3 ± 0.5 | 0.6 ± 0.07 | 1 ± 0.06 | 0.7 ± 0.1 | 0.77 ± 0.4 |
| CC1(C)N=C(N)N=C(N)N1OCCCOc1ccc(-c2nnnn2C(C)(C)C)cc1 [JPC-3671] | 38000 | 24 ± 2.14 | 1 ± 0.32 | 2.1 ± 0.016 | 2.6 ± 0.02 | 6.5 ± 0.7 | 1.6 ± 0.5 | beneficial | 0.4 ± 0.02 | 17 ± 1.5 |  |  |  |  |  |  |  |  |
| CC1(C)N=C(N)N=C(N)N1OCCCOc1ccc(Cl)c(C#N)c1 [JPC-2053] | 26000 | 6.6 ± 1.7 | 2.6 ± 1.51 | 1.5 ± 0.071 | 1.4 ± 0.021 | 0.6 ± 0.5 | 13.4 ± 1.41 |  | 0.75 ± 0.34 | 0.5 ± 0.045 |  |  |  |  |  |  |  |  |
| NC1=NC(c2cccnc2)N(OCCCOc2ccc(OC(F)(F)F)cc2Cl)C(N)=N1 (stereo not shown) [JPC-3681] | 38000 | 6.4 ± 0.7 | 2.3 ± 0.3 | 0.7 ± 0.072 | 1 ± 0.08 | 1 ± 0.07 | 2 ± 0.2 | increased activity | 0.8 ± 0.07 | 0.45 ± 0.03 |  |  |  |  |  |  |  |  |
| COc1cc(Cc2cnc(N)nc2N)cc(OC)c1OC [trimethoprim] |  |  |  |  |  |  |  |  |  |  | little to no activity | moderate to effective inhibition | moderate to effective inhibition |  |  |  |  |  |
| CCC(C)C1(C)N=C(N)N=C(N)N1OCCCOc1cc(Cl)c(Cl)cc1Cl (stereo not shown) [JPC-2748] | 1500 | 3.7 ± 0.3 | 3 ± 0.77 | 0.2 ± 0.12 | 2 ± 0.061 | 4 ± 0.74 | 4.4 ± 0.01 |  | 0.41 ± 0.07 | 12 ± 1.13 |  |  |  |  |  |  |  |  |
| COc1ccc(OCCCON2C(N)=NC(N)=NC2(C)C)cc1 [JPC-1044] | 62000 | 12 ± 0.16 | 3.3 ± 2 | 2 ± 0.02 | 3.8 ± 0.022 | 0.2 ± 0.15 | 7.1 ± 0.32 |  | 0.42 ± 0.25 | 0.6 ± 0.14 |  |  |  |  |  |  |  |  |
